Results taken from ChEMBL document CHEMBL6109109, “Fatty acid binding protein 5 inhibitors as novel anticancer agents against metastatic castration-resistant prostate cancer” (Bioorg Med Chem, 2025).

How the values were obtained:
[1] = Synergistic anticancer activity against mouse RCaP cells assessed as cell growth inhibition at 20 uM measured after 72 hrs in presence of 0.01 uM of topotecan by MTT assay relative to control; assay type: functional; conditions: read-out: GI
[2] = Synergistic anticancer activity against mouse RCaP cells assessed as cell growth inhibition at 20 uM measured after 72 hrs in presence of 0.1 uM of topotecan by MTT assay relative to control; assay type: functional; conditions: read-out: GI
[3] = Synergistic anticancer activity against mouse RCaP cells assessed as cell growth inhibition at 5 uM measured after 72 hrs in presence of 0.00001 uM of topotecan by MTT assay relative to control; assay type: functional; conditions: read-out: GI
[4] = tested on: PC-3; assay: Synergistic anticancer activity against human PC-3 cells assessed as cell growth inhibition at 10 uM measured after 72 hrs in presence of 0.001 uM of topotecan by MTT assay relative to control; assay type: functional; conditions: read-out: GI
[5] = Cytotoxicity against human WI-38 cells assessed as reduction in cell viability measured after 72 hrs by MTT assay; assay type: toxicity, cell-based
[6] = tested on: PC-3; assay: Synergistic anticancer activity against human PC-3 cells assessed as cell growth inhibition at 10 uM measured after 72 hrs in presence of 0.00001 uM of topotecan by MTT assay relative to control; assay type: functional; conditions: read-out: GI
[7] = tested on: PC-3; assay: Synergistic anticancer activity against human PC-3 cells assessed as cell growth inhibition at 20 uM measured after 72 hrs in presence of 0.1 uM of topotecan by MTT assay relative to control; assay type: functional; conditions: read-out: GI
[8] = Synergistic anticancer activity against mouse RCaP cells assessed as cell growth inhibition at […] measured after 72 hrs in presence of 0.001 uM of topotecan by MTT assay relative to control; assay type: functional; conditions: dose 2.5 µM, read-out: GI
[9] = tested on: PC-3; assay: Induction of apoptosis in human PC-3 cells assessed as viable cells at 15 uM measured after 72 hrs by Annexin V-FITC/propidium iodide staining based FACS analysis (reference value: 97.62%); assay type: functional; conditions: read-out: Activity
[10] = tested on: PC-3; assay: Induction of apoptosis in human PC-3 cells assessed as necrotic cells at 15 uM measured after 72 hrs by Annexin V-FITC/propidium iodide staining based FACS analysis (reference value: 0.11%); assay type: functional
[11] = Synergistic anticancer activity against mouse RCaP cells assessed as cell growth inhibition at 10 uM measured after 72 hrs in presence of 0.0001 uM of topotecan by MTT assay relative to control; assay type: functional; conditions: read-out: GI
[12] = tested on: PC-3; assay: Induction of apoptosis in human PC-3 cells assessed as early apoptotic cells at 15 uM measured after 72 hrs by Annexin V-FITC/propidium iodide staining based FACS analysis (reference value: 0.54%); assay type: functional
[13] = tested on: PC-3; assay: Induction of apoptosis in human PC-3 cells assessed as late apoptotic cells at 15 uM measured after 72 hrs by Annexin V-FITC/propidium iodide staining based FACS analysis (reference value: 1.73%); assay type: functional
[14] = Synergistic anticancer activity against mouse RCaP cells assessed as cell growth inhibition at 5 uM measured after 72 hrs in presence of 0.001 uM of topotecan by MTT assay relative to control; assay type: functional; conditions: read-out: GI
[15] = tested on: PC-3; assay: Synergistic anticancer activity against human PC-3 cells assessed as cell growth inhibition at 10 uM measured after 72 hrs in presence of 0.1 uM of topotecan by MTT assay relative to control; assay type: functional; conditions: read-out: GI
[16] = Synergistic anticancer activity against mouse RCaP cells assessed as cell growth inhibition at 5 uM measured after 72 hrs in presence of 0.01 uM of topotecan by MTT assay relative to control; assay type: functional; conditions: read-out: GI
[17] = Synergistic anticancer activity against mouse RCaP cells assessed as cell growth inhibition at […] measured after 72 hrs in presence of 0.01 uM of topotecan by MTT assay relative to control; assay type: functional; conditions: dose 2.5 µM, read-out: GI
[18] = tested on: PC-3; assay: Synergistic anticancer activity against human PC-3 cells assessed as cell growth inhibition at 5 uM measured after 72 hrs in presence of 10 uM of topotecan by MTT assay relative to control; assay type: functional; conditions: read-out: GI
[19] = tested on: PC-3; assay: Synergistic anticancer activity against human PC-3 cells assessed as cell growth inhibition at 20 uM measured after 72 hrs in presence of 1 uM of topotecan by MTT assay relative to control; assay type: functional; conditions: read-out: GI
[20] = Synergistic anticancer activity against mouse RCaP cells assessed as cell growth inhibition at […] measured after 72 hrs in presence of 1 uM of topotecan by MTT assay relative to control; assay type: functional; conditions: dose 2.5 µM, read-out: GI
[21] = tested on: PC-3; assay: Synergistic anticancer activity against human PC-3 cells assessed as cell growth inhibition at 5 uM measured after 72 hrs in presence of 0.1 uM of topotecan by MTT assay relative to control; assay type: functional; conditions: read-out: GI
[22] = tested on: PC-3; assay: Cytotoxicity against human PC-3 cells assessed as reduction in cell viability measured after 72 hrs by MTT assay; assay type: functional, cell-based; conditions: PC-3, 72 h
[23] = Cytotoxicity against mouse RCaP cells assessed as cell growth inhibition at 10 uM measured after 72 hrs by MTT assay relative to control; assay type: functional; conditions: read-out: GI
[24] = Synergistic anticancer activity against mouse RCaP cells assessed as cell growth inhibition at 20 uM measured after 72 hrs in presence of 0.001 uM of topotecan by MTT assay relative to control; assay type: functional; conditions: read-out: GI
[25] = Synergistic anticancer activity against mouse RCaP cells assessed as cell growth inhibition at 20 uM measured after 72 hrs in presence of 10 uM of topotecan by MTT assay relative to control; assay type: functional; conditions: read-out: GI
[26] = Synergistic anticancer activity against mouse RCaP cells assessed as cell growth inhibition at 5 uM measured after 72 hrs in presence of 1 uM of topotecan by MTT assay relative to control; assay type: functional; conditions: read-out: GI
[27] = tested on: PC-3; assay: Synergistic anticancer activity against human PC-3 cells assessed as cell growth inhibition at 5 uM measured after 72 hrs in presence of 0.0001 uM of topotecan by MTT assay relative to control; assay type: functional; conditions: read-out: GI
[28] = tested on: PC-3; assay: Synergistic anticancer activity against human PC-3 cells assessed as cell growth inhibition at […] measured after 72 hrs in presence of 0.1 uM of topotecan by MTT assay relative to control; assay type: functional; conditions: dose 2.5 µM, read-out: GI
[29] = Synergistic anticancer activity against mouse RCaP cells assessed as cell growth inhibition at 1.25 uM measured after 72 hrs in presence of 0.01 uM of topotecan by MTT assay relative to control; assay type: functional; conditions: read-out: GI
[30] = Cytotoxicity against mouse RCaP cells assessed as cell growth inhibition at 1.25 uM measured after 72 hrs by MTT assay relative to control; assay type: functional; conditions: read-out: GI
[31] = tested on: PC-3; assay: Synergistic anticancer activity against human PC-3 cells assessed as cell growth inhibition at […] measured after 72 hrs in presence of 0.0001 uM of topotecan by MTT assay relative to control; assay type: functional; conditions: dose 2.5 µM, read-out: GI
[32] = Synergistic anticancer activity against mouse RCaP cells assessed as cell growth inhibition at 1.25 uM measured after 72 hrs in presence of 0.001 uM of topotecan by MTT assay relative to control; assay type: functional; conditions: read-out: GI
[33] = Synergistic anticancer activity against mouse RCaP cells assessed as cell growth inhibition at 0.625 uM measured after 72 hrs in presence of 10 uM of topotecan by MTT assay relative to control; assay type: functional; conditions: read-out: GI
[34] = Binding affinity to FABP5 (unknown origin); parameters: species or system Homo sapiens
[35] = Cytotoxicity against mouse RCap cells assessed as reduction in cell viability measured after 72 hrs by MTT assay; assay type: functional, cell-based

COc1ccccc1[C@H]1[C@H](C(=O)O)[C@H](c2ccccc2OC)[C@H]1C(=O)OCC1c2ccccc2-c2ccccc21
inhibition of growth at 20 µM [1]: 98.2%
inhibition of growth at 20 µM [2]: 99.9%
inhibition of growth at 5 µM [3]: 9.57%
inhibition of growth at 10 µM [4]: 60.9%
IC50 at 72 h [5]: 23 µM
inhibition of growth at 10 µM [6]: 56.3%
inhibition of growth at 20 µM [7]: 99.8%
inhibition of growth at […] [8]: 6.8%
viability at 15 µM [9]: 88.7%
Activity [10]: 0.3%
inhibition of growth at 10 µM [11]: 75.1%
Activity [12]: 5.38%
Activity [13]: 5.63%
inhibition of growth at 5 µM [14]: 32.3%
inhibition of growth at 10 µM [15]: 66.8%
inhibition of growth at 5 µM [16]: 31.8%
inhibition of growth at […] [17]: 11.7%
inhibition of growth at 5 µM [18]: 86.4%
inhibition of growth at 20 µM [19]: 99.8%
inhibition of growth at […] [20]: 98.1%
inhibition of growth at 5 µM [21]: 56.3%
IC50 [22]: 10.5 µM
inhibition of growth at 10 µM [23]: 64.9%
inhibition of growth at 20 µM [24]: 98.5%
inhibition of growth at 20 µM [25]: 99.3%
inhibition of growth at 5 µM [26]: 99%
inhibition of growth at 5 µM [27]: 27.5%

COc1ccccc1[C@H]1[C@H](C(=O)O)[C@H](c2ccccc2OC)[C@H]1C(=O)Oc1cc(-c2ccc3c(c2)OCO3)ccc1-c1ccccc1
inhibition of growth at 20 µM [1]: 100%
inhibition of growth at 20 µM [2]: 99.6%
inhibition of growth at 5 µM [3]: 27.6%
inhibition of growth at 10 µM [4]: 72.4%
IC50 at 72 h [5]: 10.8 µM
inhibition of growth at 10 µM [6]: 69.5%
inhibition of growth at […] [28]: 67.4%
inhibition of growth at 1.25 µM [29]: 8.37%
inhibition of growth at 20 µM [7]: 99%
inhibition of growth at 1.25 µM [30]: -1.17%
inhibition of growth at […] [8]: 1.77%
viability at 15 µM [9]: 25.8%
Activity [10]: 1.25%
inhibition of growth at 10 µM [11]: 89.4%
inhibition of growth at […] [31]: 25.3%
Activity [12]: 20.86%
Activity [13]: 52.11%
inhibition of growth at 5 µM [14]: 36.1%
inhibition of growth at 10 µM [15]: 81.4%
inhibition of growth at 5 µM [16]: 49.6%
inhibition of growth at […] [17]: 20.6%
inhibition of growth at 5 µM [18]: 92.5%
inhibition of growth at 20 µM [19]: 99.1%
inhibition of growth at […] [20]: 98.2%
inhibition of growth at 5 µM [21]: 66.6%
IC50 [22]: 6.52 µM
inhibition of growth at 10 µM [23]: 78.2%
inhibition of growth at 1.25 µM [32]: 0.37%
inhibition of growth at 0.625 µM [33]: 99.2%
Ki [34]: 0.65 µM
inhibition of growth at 20 µM [24]: 100%
IC50 [35]: 3.44 µM
inhibition of growth at 20 µM [25]: 100%
inhibition of growth at 5 µM [26]: 97.9%
inhibition of growth at 5 µM [27]: 44.1%

O=C(O)[C@H]1[C@H](c2ccccc2)[C@H](C(=O)Oc2cc(-c3ccc4c(c3)OCO4)ccc2-c2ccccc2)[C@H]1c1ccccc1
inhibition of growth at 20 µM [1]: 97.8%
inhibition of growth at 20 µM [2]: 98.9%
inhibition of growth at 5 µM [3]: 27%
inhibition of growth at 10 µM [4]: 81.1%
IC50 at 72 h [5]: 19.5 µM
inhibition of growth at 10 µM [6]: 78.9%
inhibition of growth at 20 µM [7]: 98.5%
inhibition of growth at […] [8]: 6.33%
inhibition of growth at 10 µM [11]: 68%
inhibition of growth at 5 µM [14]: 28.3%
inhibition of growth at 10 µM [15]: 82.4%
inhibition of growth at 5 µM [16]: 34.4%
inhibition of growth at […] [17]: 12.2%
inhibition of growth at 5 µM [18]: 80.8%
inhibition of growth at 20 µM [19]: 99.3%
inhibition of growth at […] [20]: 98.6%
inhibition of growth at 5 µM [21]: 49.9%
IC50 [22]: 9.89 µM
inhibition of growth at 10 µM [23]: 58.6%
Ki [34]: 0.66 µM
inhibition of growth at 20 µM [24]: 97.8%
IC50 [35]: 12.3 µM
inhibition of growth at 20 µM [25]: 99.2%
inhibition of growth at 5 µM [26]: 97.9%
inhibition of growth at 5 µM [27]: 30.9%
